Laboratory results taken from article PMC12300041, “Tricyclic Isatin Derivatives as Anti-Inflammatory Compounds with High Kinase Binding Affinity” (Molecules, 2025).

What was measured:
Test in all cases: KINOMEscan
Assay type in all cases: binding
PAK3 = biological target: T1, PAK3 (Homo sapiens, UniProt O75914)
T1 construct: purchased Eurofins DiscoverX KINOMEscan
How it was run: (§1)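 Competition binding run for 1 h at room temperature; kinase left unbound by compound was captured on an immobilized affinity ligand and quantified by qPCR. Kd was taken from a 12-point half-log dilution series with a 33 μM top concentration.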

[1] = biological target: T2, RPS6KA5 (Kin. Dom.2-C-term.) (Homo sapiens, UniProt O75582)
T2 construct: RPS6KA5 (Kin. Dom.2-C-term.); purchased Eurofins DiscoverX KINOMEscan
How it was run: as §1

RET = biological target: T3, RET (Homo sapiens, UniProt P07949)
T3 construct: purchased Eurofins DiscoverX KINOMEscan
T3 sequence (P07949 29-1114): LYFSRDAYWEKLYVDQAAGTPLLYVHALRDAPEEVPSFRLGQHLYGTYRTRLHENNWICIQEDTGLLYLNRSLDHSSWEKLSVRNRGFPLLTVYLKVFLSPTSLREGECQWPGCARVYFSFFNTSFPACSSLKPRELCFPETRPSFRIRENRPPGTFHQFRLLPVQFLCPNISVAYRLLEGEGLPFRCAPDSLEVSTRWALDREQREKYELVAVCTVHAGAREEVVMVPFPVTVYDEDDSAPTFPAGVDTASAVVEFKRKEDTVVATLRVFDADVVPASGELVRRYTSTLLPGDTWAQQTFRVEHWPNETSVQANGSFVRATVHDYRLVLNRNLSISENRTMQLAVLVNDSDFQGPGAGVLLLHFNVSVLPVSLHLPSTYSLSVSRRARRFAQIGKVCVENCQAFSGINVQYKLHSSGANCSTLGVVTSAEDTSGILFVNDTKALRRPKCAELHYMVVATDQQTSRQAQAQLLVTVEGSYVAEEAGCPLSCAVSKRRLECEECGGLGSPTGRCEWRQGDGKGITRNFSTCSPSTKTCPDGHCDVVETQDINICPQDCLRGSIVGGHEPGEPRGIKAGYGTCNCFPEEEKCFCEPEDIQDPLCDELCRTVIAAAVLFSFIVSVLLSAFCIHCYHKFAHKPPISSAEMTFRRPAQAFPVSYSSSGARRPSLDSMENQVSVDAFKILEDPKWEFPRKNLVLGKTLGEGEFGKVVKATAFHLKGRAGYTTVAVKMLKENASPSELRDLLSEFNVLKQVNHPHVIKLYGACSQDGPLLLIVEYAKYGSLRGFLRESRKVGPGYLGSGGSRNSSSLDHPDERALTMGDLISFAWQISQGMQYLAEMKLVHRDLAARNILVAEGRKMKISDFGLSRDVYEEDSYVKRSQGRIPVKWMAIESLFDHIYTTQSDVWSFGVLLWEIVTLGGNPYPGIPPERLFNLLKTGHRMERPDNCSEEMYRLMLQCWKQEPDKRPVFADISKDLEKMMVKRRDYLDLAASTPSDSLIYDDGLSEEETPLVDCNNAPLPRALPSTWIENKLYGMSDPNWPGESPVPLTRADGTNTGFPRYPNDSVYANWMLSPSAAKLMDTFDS
How it was run: as §1

SGK3 = biological target: T4, SGK3 (Homo sapiens, UniProt Q96BR1)
T4 construct: purchased Eurofins DiscoverX KINOMEscan
How it was run: as §1

ERK3 = biological target: T5, ERK3 (Homo sapiens, UniProt Q16659)
T5 construct: purchased Eurofins DiscoverX KINOMEscan
How it was run: as §1

EGFR (S752-I759 del) = biological target: T6, EGFR (S752-I759 del) (Homo sapiens, UniProt P00533, DEL752-759)
T6 construct: purchased Eurofins DiscoverX KINOMEscan
T6 sequence (P00533 with tags, fused parts or gaps DEL752-759 limits assumed): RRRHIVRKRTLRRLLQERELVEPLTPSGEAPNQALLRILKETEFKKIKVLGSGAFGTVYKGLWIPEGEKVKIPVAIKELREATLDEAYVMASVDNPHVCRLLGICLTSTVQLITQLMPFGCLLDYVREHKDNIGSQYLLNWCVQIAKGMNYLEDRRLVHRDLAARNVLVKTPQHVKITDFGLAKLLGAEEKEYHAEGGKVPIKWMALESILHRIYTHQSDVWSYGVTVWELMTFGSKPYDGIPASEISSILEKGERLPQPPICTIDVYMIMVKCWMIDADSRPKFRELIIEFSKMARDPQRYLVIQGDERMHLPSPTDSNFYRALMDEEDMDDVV
How it was run: as §1

PIK3CA (E545K) = biological target: T7, PIK3CA (E545K) (Homo sapiens, UniProt P42336, E545K)
T7 construct: purchased Eurofins DiscoverX KINOMEscan
How it was run: as §1

DCAMKL2 = biological target: T8, DCAMKL2 (Homo sapiens, UniProt Q8N568)
T8 construct: purchased Eurofins DiscoverX KINOMEscan
How it was run: as §1

PKN2 = biological target: T9, PKN2 (Homo sapiens, UniProt Q16513)
T9 construct: purchased Eurofins DiscoverX KINOMEscan
How it was run: as §1

RET (V804M) = biological target: T10, RET (V804M) (Homo sapiens, UniProt P07949, V804M)
T10 construct: purchased Eurofins DiscoverX KINOMEscan
T10 sequence (P07949 29-1114 V804M): as the sequence (P07949 29-1114) above, with V776M counted along it
How it was run: as §1

FLT3-autoinhibited = biological target: T11, FLT3-autoinhibited (Homo sapiens, UniProt P36888)
T11 construct: purchased Eurofins DiscoverX KINOMEscan
How it was run: as §1

PIK3CA (I800L) = biological target: T12, PIK3CA (I800L) (Homo sapiens, UniProt P42336, I800L)
T12 construct: purchased Eurofins DiscoverX KINOMEscan
How it was run: as §1

NEK5 = biological target: T13, NEK5 (Homo sapiens, UniProt Q6P3R8)
T13 construct: purchased Eurofins DiscoverX KINOMEscan
How it was run: as §1

WNK1 = biological target: T14, WNK1 (Homo sapiens, UniProt Q9H4A3)
T14 construct: purchased Eurofins DiscoverX KINOMEscan
How it was run: as §1

FGFR1 = biological target: T15, FGFR1 (Homo sapiens, UniProt P11362)
T15 construct: purchased Eurofins DiscoverX KINOMEscan
How it was run: as §1

GSK3A = biological target: T16, GSK3A (Homo sapiens, UniProt P49840)
T16 construct: purchased Eurofins DiscoverX KINOMEscan
How it was run: as §1

SgK110 = biological target: T17, SgK110 (Homo sapiens, UniProt P0C264)
T17 construct: purchased Eurofins DiscoverX KINOMEscan
How it was run: as §1

SRC = biological target: T18, SRC (Homo sapiens, UniProt P12931)
T18 construct: purchased Eurofins DiscoverX KINOMEscan
How it was run: as §1

JNK3 = biological target: T19, JNK3 (Homo sapiens, UniProt P53779)
T19 construct: purchased Eurofins DiscoverX KINOMEscan
How it was run: as §1

KIT (D816H) = biological target: T20, KIT (D816H) (Homo sapiens, UniProt P10721, D816H)
T20 construct: purchased Eurofins DiscoverX KINOMEscan
T20 sequence (P10721 26-976 D816H): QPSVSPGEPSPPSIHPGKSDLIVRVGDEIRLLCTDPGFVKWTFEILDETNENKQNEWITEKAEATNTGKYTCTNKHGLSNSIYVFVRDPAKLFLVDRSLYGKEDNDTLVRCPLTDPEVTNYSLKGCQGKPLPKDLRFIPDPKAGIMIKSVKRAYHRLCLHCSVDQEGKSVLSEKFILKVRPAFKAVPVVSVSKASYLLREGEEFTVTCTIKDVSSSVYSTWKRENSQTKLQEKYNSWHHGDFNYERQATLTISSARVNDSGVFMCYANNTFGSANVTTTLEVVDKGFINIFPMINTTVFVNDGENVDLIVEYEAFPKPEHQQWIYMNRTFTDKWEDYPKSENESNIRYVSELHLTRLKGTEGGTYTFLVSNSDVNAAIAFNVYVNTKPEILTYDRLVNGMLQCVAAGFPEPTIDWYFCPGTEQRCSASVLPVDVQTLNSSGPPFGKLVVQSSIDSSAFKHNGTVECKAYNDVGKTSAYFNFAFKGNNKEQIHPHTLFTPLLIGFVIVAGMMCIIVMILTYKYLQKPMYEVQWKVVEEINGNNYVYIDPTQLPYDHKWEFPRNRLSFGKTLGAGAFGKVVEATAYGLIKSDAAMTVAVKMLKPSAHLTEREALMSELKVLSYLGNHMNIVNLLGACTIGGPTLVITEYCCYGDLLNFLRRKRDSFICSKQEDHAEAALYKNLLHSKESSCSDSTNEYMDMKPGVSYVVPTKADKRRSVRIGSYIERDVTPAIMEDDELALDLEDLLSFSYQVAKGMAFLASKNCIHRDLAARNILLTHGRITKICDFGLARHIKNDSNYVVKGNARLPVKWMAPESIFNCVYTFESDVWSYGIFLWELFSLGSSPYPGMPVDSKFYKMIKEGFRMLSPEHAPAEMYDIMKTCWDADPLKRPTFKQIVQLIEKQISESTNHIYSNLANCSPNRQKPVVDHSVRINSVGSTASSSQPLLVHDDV
How it was run: as §1

RIPK4 = biological target: T21, RIPK4 (Homo sapiens, UniProt P57078)
T21 construct: purchased Eurofins DiscoverX KINOMEscan
How it was run: as §1

FRK = biological target: T22, FRK (Homo sapiens, UniProt P42685)
T22 construct: purchased Eurofins DiscoverX KINOMEscan
How it was run: as §1

p38-β = biological target: T23, p38-β (Homo sapiens, UniProt Q15759)
T23 construct: purchased Eurofins DiscoverX KINOMEscan
How it was run: as §1

CLK4 = biological target: T24, CLK4 (Homo sapiens, UniProt Q9HAZ1)
T24 construct: purchased Eurofins DiscoverX KINOMEscan
How it was run: as §1

HIPK4 = biological target: T25, HIPK4 (Homo sapiens, UniProt Q8NE63)
T25 construct: purchased Eurofins DiscoverX KINOMEscan
T25 sequence (Q8NE63 whole entry): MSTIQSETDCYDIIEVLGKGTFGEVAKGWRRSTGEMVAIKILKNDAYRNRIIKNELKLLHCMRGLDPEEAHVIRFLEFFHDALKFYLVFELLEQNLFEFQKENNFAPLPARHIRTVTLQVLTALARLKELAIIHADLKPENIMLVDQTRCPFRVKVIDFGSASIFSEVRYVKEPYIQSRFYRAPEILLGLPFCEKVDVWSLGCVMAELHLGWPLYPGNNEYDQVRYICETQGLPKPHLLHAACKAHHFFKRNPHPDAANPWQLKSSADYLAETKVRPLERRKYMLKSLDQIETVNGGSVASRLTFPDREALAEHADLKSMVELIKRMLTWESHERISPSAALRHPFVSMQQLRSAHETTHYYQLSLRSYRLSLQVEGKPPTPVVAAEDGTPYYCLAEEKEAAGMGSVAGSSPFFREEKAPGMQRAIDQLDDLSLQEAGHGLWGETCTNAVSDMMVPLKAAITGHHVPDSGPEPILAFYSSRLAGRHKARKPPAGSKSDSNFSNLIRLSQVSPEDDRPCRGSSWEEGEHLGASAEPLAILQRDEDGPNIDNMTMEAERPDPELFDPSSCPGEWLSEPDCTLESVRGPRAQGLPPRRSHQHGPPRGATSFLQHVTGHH
How it was run: as §1

RIPK1 = biological target: T26, RIPK1 (Homo sapiens, UniProt Q13546)
T26 construct: purchased Eurofins DiscoverX KINOMEscan
How it was run: as §1

PRKCH = biological target: T27, PRKCH (Homo sapiens, UniProt P24723)
T27 construct: purchased Eurofins DiscoverX KINOMEscan
How it was run: as §1

PIM3 = biological target: T28, PIM3 (Homo sapiens, UniProt Q86V86)
T28 construct: purchased Eurofins DiscoverX KINOMEscan
How it was run: as §1

BMPR2 = biological target: T29, BMPR2 (Homo sapiens, UniProt Q13873)
T29 construct: purchased Eurofins DiscoverX KINOMEscan
How it was run: as §1

MAK = biological target: T30, MAK (Homo sapiens, UniProt P20794)
T30 construct: purchased Eurofins DiscoverX KINOMEscan
How it was run: as §1

ERK5 = biological target: T31, ERK5 (Homo sapiens, UniProt Q13164)
T31 construct: purchased Eurofins DiscoverX KINOMEscan
T31 sequence (Q13164 whole entry): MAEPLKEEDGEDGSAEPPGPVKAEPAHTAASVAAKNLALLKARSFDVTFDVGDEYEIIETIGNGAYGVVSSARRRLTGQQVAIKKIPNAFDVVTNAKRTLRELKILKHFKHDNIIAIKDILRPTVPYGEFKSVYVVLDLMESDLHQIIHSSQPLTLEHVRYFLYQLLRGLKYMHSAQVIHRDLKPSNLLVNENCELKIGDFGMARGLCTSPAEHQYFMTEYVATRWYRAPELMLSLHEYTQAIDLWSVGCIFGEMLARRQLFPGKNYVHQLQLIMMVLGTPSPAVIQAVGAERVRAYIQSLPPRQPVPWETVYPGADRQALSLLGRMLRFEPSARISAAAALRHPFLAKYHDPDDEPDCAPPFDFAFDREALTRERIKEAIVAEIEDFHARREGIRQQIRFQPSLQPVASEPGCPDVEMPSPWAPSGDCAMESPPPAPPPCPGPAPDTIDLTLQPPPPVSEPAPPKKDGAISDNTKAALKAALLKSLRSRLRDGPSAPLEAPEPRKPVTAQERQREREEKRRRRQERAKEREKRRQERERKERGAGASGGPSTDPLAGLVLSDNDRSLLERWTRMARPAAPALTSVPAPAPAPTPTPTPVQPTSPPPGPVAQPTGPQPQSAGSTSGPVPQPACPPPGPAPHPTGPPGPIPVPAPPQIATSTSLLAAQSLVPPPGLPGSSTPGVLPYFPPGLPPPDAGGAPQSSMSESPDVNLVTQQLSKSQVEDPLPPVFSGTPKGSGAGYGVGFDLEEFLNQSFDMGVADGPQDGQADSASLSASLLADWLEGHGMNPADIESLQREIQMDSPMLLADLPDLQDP
How it was run: as §1

PCTK2 = biological target: T32, PCTK2 (Homo sapiens, UniProt Q00537)
T32 construct: purchased Eurofins DiscoverX KINOMEscan
How it was run: as §1

CAMK2A = biological target: T33, CAMK2A (Homo sapiens, UniProt Q9UQM7)
T33 construct: purchased Eurofins DiscoverX KINOMEscan
How it was run: as §1

LATS1 = biological target: T34, LATS1 (Homo sapiens, UniProt O95835)
T34 construct: purchased Eurofins DiscoverX KINOMEscan
How it was run: as §1

PRKCQ = biological target: T35, PRKCQ (Homo sapiens, UniProt Q04759)
T35 construct: purchased Eurofins DiscoverX KINOMEscan
How it was run: as §1

[2] = biological target: T36, RSK1 (Kin. Dom.1-N-term.) (Homo sapiens, UniProt Q15418)
T36 construct: RSK1 (Kin. Dom.1-N-term.); purchased Eurofins DiscoverX KINOMEscan
How it was run: as §1

CAMKK2 = biological target: T37, CAMKK2 (Homo sapiens, UniProt Q96RR4)
T37 construct: purchased Eurofins DiscoverX KINOMEscan
T37 sequence (Q96RR4 whole entry): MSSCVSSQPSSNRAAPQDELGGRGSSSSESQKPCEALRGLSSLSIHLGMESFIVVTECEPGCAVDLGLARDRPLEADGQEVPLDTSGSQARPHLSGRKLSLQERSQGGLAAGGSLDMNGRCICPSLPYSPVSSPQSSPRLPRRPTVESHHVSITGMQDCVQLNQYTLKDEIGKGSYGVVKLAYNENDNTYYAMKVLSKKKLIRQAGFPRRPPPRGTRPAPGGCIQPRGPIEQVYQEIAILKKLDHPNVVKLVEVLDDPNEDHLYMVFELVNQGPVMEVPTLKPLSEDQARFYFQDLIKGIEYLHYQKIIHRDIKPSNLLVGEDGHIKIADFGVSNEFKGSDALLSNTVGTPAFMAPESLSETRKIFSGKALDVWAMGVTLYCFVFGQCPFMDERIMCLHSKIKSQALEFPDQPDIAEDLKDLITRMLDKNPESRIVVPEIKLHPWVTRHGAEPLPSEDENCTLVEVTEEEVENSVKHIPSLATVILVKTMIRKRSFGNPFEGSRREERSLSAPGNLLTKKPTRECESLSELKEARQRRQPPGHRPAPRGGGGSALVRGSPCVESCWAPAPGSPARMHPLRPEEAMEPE
How it was run: as §1

CDC2L2 = biological target: T38, CDC2L2 (Homo sapiens, UniProt Q9UQ88)
T38 construct: purchased Eurofins DiscoverX KINOMEscan
How it was run: as §1

CAMK1G = biological target: T39, CAMK1G (Homo sapiens, UniProt Q96NX5)
T39 construct: purchased Eurofins DiscoverX KINOMEscan
How it was run: as §1

T1 sequence (O75914 whole entry): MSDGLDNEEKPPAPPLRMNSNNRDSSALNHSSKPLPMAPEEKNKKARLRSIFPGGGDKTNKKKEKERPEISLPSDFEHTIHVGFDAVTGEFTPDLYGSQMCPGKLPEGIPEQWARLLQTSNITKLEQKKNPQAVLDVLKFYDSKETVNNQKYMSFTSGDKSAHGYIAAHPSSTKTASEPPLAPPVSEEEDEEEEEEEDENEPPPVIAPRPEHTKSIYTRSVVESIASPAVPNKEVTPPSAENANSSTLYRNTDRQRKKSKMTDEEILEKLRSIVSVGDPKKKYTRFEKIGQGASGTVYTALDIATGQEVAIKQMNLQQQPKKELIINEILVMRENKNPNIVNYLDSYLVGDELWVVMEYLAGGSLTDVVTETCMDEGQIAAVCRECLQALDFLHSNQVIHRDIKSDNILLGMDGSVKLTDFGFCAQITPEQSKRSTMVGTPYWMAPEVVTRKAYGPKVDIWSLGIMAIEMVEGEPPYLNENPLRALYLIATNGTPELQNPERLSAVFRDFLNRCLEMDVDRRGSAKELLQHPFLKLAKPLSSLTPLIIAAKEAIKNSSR

Question: With `O=C1Nc2c(cc([N+](=O)[O-])c3c2CCCC3)C1=NO` [Compound 5d, 3-(Hydroxyimino)-5-nitro-1,3,6,7,8,9-hexahydro-2H-benzo[g]indol-2-one] as the compound, how does the inhibition at 10 µM (PAK3) read?
Answer: 67%

Question: What about the inhibition at 10 µM [1] of the same compound?
Answer: 89.4%

Question: And the inhibition at 10 µM (RET)?
Answer: 8%

Question: What about the inhibition at 10 µM (SGK3) of the same compound?
Answer: 55%

Question: And the inhibition at 10 µM (ERK3)?
Answer: 0%

Question: And the inhibition at 10 µM (EGFR (S752-I759 del))?
Answer: 16%

Question: And the inhibition at 10 µM (PIK3CA (E545K))?
Answer: 0%

Question: And the inhibition at 10 µM (DCAMKL2)?
Answer: 0%

Question: And the inhibition at 10 µM (PKN2)?
Answer: 84%

Question: What about the inhibition at 10 µM (RET (V804M)) of the same compound?
Answer: 4%

Question: What about the inhibition at 10 µM (FLT3-autoinhibited) of the same compound?
Answer: 4%

Question: And the inhibition at 10 µM (PIK3CA (I800L))?
Answer: 5%

Question: And the inhibition at 10 µM (NEK5)?
Answer: 7%

Question: And the inhibition at 10 µM (WNK1)?
Answer: 12%

Question: What about the inhibition at 10 µM (FGFR1) of the same compound?
Answer: 5%

Question: What about the inhibition at 10 µM (GSK3A) of the same compound?
Answer: 57%

Question: What about the inhibition at 10 µM (SgK110) of the same compound?
Answer: 0%

Question: What about the inhibition at 10 µM (SRC) of the same compound?
Answer: 28%

Question: What about the inhibition at 10 µM (JNK3) of the same compound?
Answer: 52%

Question: And the inhibition at 10 µM (KIT (D816H))?
Answer: 1%

Question: What about the inhibition at 10 µM (RIPK4) of the same compound?
Answer: 55%

Question: And the inhibition at 10 µM (FRK)?
Answer: 0%

Question: What about the inhibition at 10 µM (p38-β) of the same compound?
Answer: 15%

Question: And the inhibition at 10 µM (CLK4)?
Answer: 93.9%

Question: What about the inhibition at 10 µM (HIPK4) of the same compound?
Answer: 63%

Question: And the inhibition at 10 µM (RIPK1)?
Answer: 0%

Question: What about the inhibition at 10 µM (PRKCH) of the same compound?
Answer: 0%

Question: And the inhibition at 10 µM (PIM3)?
Answer: 95.8%

Question: What about the inhibition at 10 µM (BMPR2) of the same compound?
Answer: 64%

Question: And the inhibition at 10 µM (MAK)?
Answer: 5%

Question: What about the inhibition at 10 µM (ERK5) of the same compound?
Answer: 0%

Question: What about the inhibition at 10 µM (PCTK2) of the same compound?
Answer: 0%

Question: What about the inhibition at 10 µM (CAMK2A) of the same compound?
Answer: 71%

Question: What about the inhibition at 10 µM (LATS1) of the same compound?
Answer: 0%

Question: And the inhibition at 10 µM (PRKCQ)?
Answer: 7%

Question: And the inhibition at 10 µM [2]?
Answer: 0%

Question: What about the inhibition at 10 µM (CAMKK2) of the same compound?
Answer: 56%

Question: What about the inhibition at 10 µM (CDC2L2) of the same compound?
Answer: 0%

Question: And the inhibition at 10 µM (CAMK1G)?
Answer: 29%
